Results published in US20040265323A1, “Compositions comprising pathogen elicited epithelial chemoattractant (eicosanoid hepoxilin A3), inhibitors thereof and methods of use thereof” (priority 2003, published 2004).
Entries after “also recorded” stand apart in the source; their conditions may differ.

Experiments:
[1] = system: P. aeruginosa-induced PMN transepithelial migration, A549 cells; test: P. aeruginosa-induced PMN transepithelial migration across A549 cell monolayers; format: cell-based, human; conditions: A549 monolayers, FIG. 5C
From the text: It was further determined whether similar hepoxilin A3 recruitment of PMN by apically attached pathogens might occur at other mucosal surfaces. Pseudomonas aeruginosa is the most prominent bacterial spp. present during chronic infection in cystic fibrosis and chronic obstructive pulmonary disease patients and is accompanied by severe inflammation, including the emigration of PMN to the airway lumen (Pizurki et al., 2000; Jahn et al., 2000; Weiss, S. 1989). As a model for the airway epithelium the A549 cell line was used. This cell line is capable of forming a polarized barrier, and is widely employed as a model for the airway epithelial surface (Smart and Casale, 1994). […] Finally, the secretion of hepoxlin A3 in vitro was quantified using this A549 model system. For these experiments, A549 lung epithelial cells (ATTC) were grown in F12K media (Invitrogen) with 10% FBS, and maintained in culture similar to the T84 cell line. The wild type P. aeruginosa (PAO1) was used for infection of A549 after overnight aerobic growth (Luria broth) at 37° C.

[2] = system: S. typhimurium-induced PMN transepithelial migration, T84 cells; test: Inhibition of S. typhimurium-induced PMN transepithelial migration across T84 monolayers; format: cell-based, human; conditions: T84 pre-treated: baicalein 48 hours, caffeic acid 24 hours
From the text: It was further examined if hepoxilin A3 acts in a gradient fashion to drive PMN migration from the basolateral to the apical epithelial surface. For these experiments, the physiologically directed (basolateral-to-apical) PMN transepithelial migration assay using cell culture inserts of inverted T84 monolayers has been used (McCormick et al., 1993; Parkos et al., 1992). Human PMN were isolated from normal volunteers, as described elsewhere (Parkos et al., 1992; Henson and Oades, 1975). […] PMN which completely traversed the monolayer were represented as the number of PMN (CE/ml in a total volume of 1 ml). Values were expressed as the mean and SD of an individual experiment done in triplicate repeated at least 3 times.
Hepoxilin A3 is formed via the 12-lipoxygenase (LO) metabolism pathway of arachidonic acid. Therefore, the involvement of the 12-LO pathway in the ability of the enteric pathogen, S. typhimurium, to induce PMN transepithelial migration and elicit PEEC secretion was tested. […] For 12-LO inhibition, HBSS(+)-washed T84 cell monolayers were incubated in the presence baicalein [stock concentration at 1 mM in DMSO] for 48 hours at 37° C. Subsequently, S. typhimurium SL1344 was added to the apical surface of the T84 monolayers and after an incubation of 1 hour at 37° C., the cells were washed free of non-adherent bacteria and then processed for the PMN transmigration assay. […] For 5-LO inhibition, the T84 cells were washed with HBSS(+) and then were incubated for 24 hours in the presence of caffeic acid (stock concentration at 22 mM in DMSO). Both inhibitors were purchased form Biomol, Plymouth Meeting, Pa.
In each instance, the T84 cell monolayers were incubated for […] in the presence of the inhibitor prior to the addition of S. typhimurium.

MRP-2 = MRP-2 expression in large bowel of CD45Rbhi T cell transferred mice; format: in vivo; conditions: sick mice after treatment, FIG. 11C
Protocol: The upper third of the large bowel from these mice were excised, and fixed in OCT. Slides from these tissues were prepared and fluorescently probed for MRP-2 expression. […] Thus, in the efflux pathway for hepoxilin A3, MRP-2 is in fact activated during the disease phase and suppressed upon baicalein treatment

12-LO pathway = test: 12-S-HETE ELISA of lumenal fluid of S. typhimurium-infected xenografts; format: in vivo, human; conditions: S. typhimurium-infected xenografts with baicalein; average of two lumens
Protocol: Further, the effect of baicalein on S. typhimurium pathology in human intestinal xenografts was determined (Savidge et al., 1995) (FIG. 7). The human fetal intestinal xenograft model used in the present study has been previously described in detail (Savidge et al., 1995). Briefly, human fetal small intestine (n=3, gestational age 10-14weeks) was transplanted subcutaneously into C.B-17 severe-combined immunodeficient (SCID) mice. Xenografts were allowed to develop for a period between 10-20 weeks before use at which time the epithelium and underlying mucosa is fully differentiated (Savidge et al., 1995). Xenografts were infected with approximately 5×10^7 wild type S. typhimurium SL1344 in sterile HBSS(+) buffer in a 100 μl volume injected intralumenally by subcutaneous injection. […]
It was further confirmed that treatment of the intestinal xenografts with baicalein inhibited the 12-LO pathway by measuring the amount of 12-S-HETE, a major 12-LO metabolite, released into the lumenal fluid. […] Finally, it was determined that there was no statistical difference in the amount IL-8 produced in the S. typhimurium-infected intestinal xenografts in the absence compared to the presence of baicalein treatment (200±53 pg/mg compared to 225±30 pg/mg, respectively, verses 52±11 pg/mg for uninfected control). […]

## O=c1cc(-c2ccccc2)oc2cc(O)c(O)c(O)c12 [baicalein]
[1]
  P. aeruginosa-induced PMN transepithelial migration with 12-LO inhibitor: inhibited
[2]
  S. typhimurium-induced PMN transepithelial migration with lipoxygenase inhibitor: attenuated S. typhimurium-induced PMN transepithelial migration in a concentration-dependent fashion; also recorded: dose dependent decrease
MRP-2
  MRP-2 expression at apical surface of intestinal epithelium: completely suppressed
12-LO pathway
  12-S-HETE in lumenal fluid: 21.5 ng/mL
